Experimental data taken from patent US8017611B2, “Pyridine and pyrazine derivatives -083” (AstraZeneca AB, priority 2007, dated 2011).

Biological target: T1, recombinant Axl tyrosine kinase (Homo sapiens, UniProt P30530)
T1 construct: encompassing amino acids 473 to 894 of Axl; GST (N); made in house; host or cells: SF126 insect cells
T1 sequence (P30530 473-894): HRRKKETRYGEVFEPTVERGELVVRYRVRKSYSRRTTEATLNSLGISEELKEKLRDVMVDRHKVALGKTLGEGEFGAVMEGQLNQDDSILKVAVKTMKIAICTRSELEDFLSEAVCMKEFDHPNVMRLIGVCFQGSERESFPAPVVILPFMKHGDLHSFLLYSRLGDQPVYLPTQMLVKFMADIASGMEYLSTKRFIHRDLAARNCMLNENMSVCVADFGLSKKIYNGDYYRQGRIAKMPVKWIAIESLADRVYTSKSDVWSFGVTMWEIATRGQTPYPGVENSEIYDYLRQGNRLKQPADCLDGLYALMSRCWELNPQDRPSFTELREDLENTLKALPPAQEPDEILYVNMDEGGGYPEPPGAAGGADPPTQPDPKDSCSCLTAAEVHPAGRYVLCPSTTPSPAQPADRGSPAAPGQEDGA
Assay: In vitro Axl kinase assay (AlphaScreen), Test (a)
Assay type: biochemical
Conditions: test compound at 1 μM; first value quoted

Compound | % Axl tyrosine kinase inhibition at 1 μM concentration
CNC1CCN(C(=O)c2ccc(-c3cnc(N)c(-c4nc5cccnc5o4)c3)cc2)C1 (stereo not drawn) [Example 45A.80] | 99.7%
CNCCCNC(=O)c1ccc(-c2cnc(N)c(-c3nc4cccnc4o3)c2)cc1 [Example 45A.81] | 99.6%
Nc1ncc(-c2ccc(C(=O)N3CCCNCC3)cc2)cc1-c1nc2cccnc2o1 [Example 45A.82] | 98.4%
Nc1ncc(-c2ccc(C(=O)NCCN3CCNCC3)cc2)cc1-c1nc2cccnc2o1 [Example 45A.83] | 98.9%
Nc1ncc(-c2ccc(C(=O)NC3CCCNC3)cc2)cc1-c1nc2cccnc2o1 (stereo not drawn) [Example 45A.84] | 99.1%
CNCCN(C)C(=O)c1ccc(-c2cnc(N)c(-c3nc4cccnc4o3)c2)cc1 [Example 45A.85] | 99.8%
Nc1ncc(-c2ccc(C(=O)N3CCC(C4CCNCC4)CC3)cc2)cc1-c1nc2cccnc2o1 [Example 45A.86] | 95.8%
Nc1ncc(-c2ccc(C(=O)N3CCC4(CCCNC4)CC3)cc2)cc1-c1nc2cccnc2o1 [Example 45A.87] | 77.4%
Nc1ncc(-c2ccc(C(=O)N3CCC[C@H](N)C3)cc2)cc1-c1nc2cccnc2o1 [Example 45A.88] | 99.8%
Nc1ncc(-c2ccc(C(=O)N3CCC4(CCNC4)CC3)cc2)cc1-c1nc2cccnc2o1 [Example 45A.89] | 91.7%
Nc1ncc(-c2ccc(C(=O)NC[C@@H]3CCCN3)cc2)cc1-c1nc2cccnc2o1 [Example 45A.90] | 98.9%
Nc1ncc(-c2ccc(C(=O)N3CCCC4(CCNCC4)C3)cc2)cc1-c1nc2cccnc2o1 [Example 45A.91] | 96.3%
NCC[C@H]1CCCN(C(=O)c2ccc(-c3cnc(N)c(-c4nc5cccnc5o4)c3)cc2)C1 [Example 45A.92] | 99.7%
Nc1ncc(-c2ccc(C(=O)NC[C@H]3CCCNC3)cc2)cc1-c1nc2cccnc2o1 [Example 45A.93] | 99.3%
Nc1ncc(-c2ccc(C(=O)N3CC4CNCC4C3)cc2)cc1-c1nc2cccnc2o1 (stereo not drawn) [Example 45A.94] | 98.9%
Nc1ncc(-c2ccc(C(=O)N3CCCC(N)CC3)cc2)cc1-c1nc2cccnc2o1 (stereo not drawn) [Example 45A.95] | 99.5%

Compound | % Axl tyrosine kinase inhibition at 1 μM concentration
CN(C(=O)c1ccc(-c2cnc(N)c(-c3nc4cccnc4o3)c2)cc1)C1CCNCC1 [Example 45A.96] | 99.1%
Nc1ncc(-c2ccc(C(=O)N3CCC(CN4CCNCC4)CC3)cc2)cc1-c1nc2cccnc2o1 [Example 45A.98] | 97.6%
CNC1CCC(NC(=O)c2ccc(-c3cnc(N)c(-c4nc5cccnc5o4)c3)cc2)CC1 (stereo not drawn) [Example 45A.99] | 95.9%
Nc1ncc(-c2ccc(C(=O)N3CCC4(CCNCC4)CC3)cc2)cc1-c1nc2cccnc2o1 [Example 45A.100] | 95.3%
Nc1ncc(-c2ccc(C(=O)NCCCN3CCNCC3)cc2)cc1-c1nc2cccnc2o1 [Example 45A.101] | 99.1%
Nc1ncc(-c2ccc(C(=O)NC3CCNCC3)cc2)cc1-c1nc2cccnc2o1 [Example 45A.103] | 97.3%
Nc1ncc(-c2ccc(C(=O)NCC3CCCCN3)cc2)cc1-c1nc2cccnc2o1 (stereo not drawn) [Example 45A.104] | 99.8%
Nc1ncc(-c2ccc(C(=O)N3CC(N)C3)cc2)cc1-c1nc2cccnc2o1 [Example 45A.105] | 98.4%
Nc1ncc(-c2ccc(C(=O)NC3CCNC3)cc2)cc1-c1nc2cccnc2o1 (stereo not drawn) [Example 45A.106] | 98.4%
Nc1ncc(-c2ccc(C(=O)N3CCC(N)CC3)cc2)cc1-c1nc2cccnc2o1 [Example 45A.107] | 95.0%
CN(C)CCN(C)C(=O)c1ccc(-c2cnc(N)c(-c3nc4ncccc4o3)c2)cc1 [Example 45B.1] | 98.1%
CN1CCN(C(=O)c2ccc(-c3cnc(N)c(-c4nc5ncccc5o4)c3)cc2)CC1 [Example 45B.2] | 96.1%
Nc1ncc(-c2ccc(C(=O)NCCN3CCOCC3)cc2)cc1-c1nc2ncccc2o1 [Example 45B.3] | 97.7%
Nc1ncc(-c2ccc(C(=O)N3CCN(Cc4ccccn4)CC3)cc2)cc1-c1nc2ncccc2o1 [Example 45B.4] | 99.6%
Nc1ncc(-c2ccc(C(=O)N3CCC(N4CCCC4)CC3)cc2)cc1-c1nc2ncccc2o1 [Example 45B.5] | 99.9%
CN(C)C(=O)CN1CCN(C(=O)c2ccc(-c3cnc(N)c(-c4nc5ncccc5o4)c3)cc2)CC1 [Example 45B.6] | 95.9%

Same assay, conditions: test compound at 1 μM; first value quoted; read-out: % Axl tyrosine kinase inhibition at 1 μM concentration

Compound | inhibition at 1 µM
Nc1ncc(-c2cccc(S(=O)(=O)CCC3CCNCC3)c2)cc1-c1nc2ccccc2o1 [Example 46, 3-(1,3-Benzoxazol-2-yl)-5-[3-[2-(4-piperidyl)ethylsulphonyl]phenyl]pyridin-2-amine] | 95.9%
CCNS(=O)(=O)c1cccc(-c2cnc(N)c(-c3nc4ccccc4o3)c2)c1 [Example 48, 3-[6-Amino-5-(1,3-benzoxazol-2-yl)-3-pyridyl]-N-ethyl-benzenesulphonamide] | 93.5%
Nc1ncc(-c2cccc(N3CCOCC3)c2)nc1-c1nc2ccccc2s1 [Example 49, 3-(1,3-Benzothiazol-2-yl)-5-(3-morpholinophenyl)pyrazin-2-amine] | 73.4%
Nc1ncc(-c2cccc(CC(=O)O)c2)nc1-c1nc2ccc(F)cc2o1 [Example 50, 2-[3-[5-amino-6-(6-fluoro-1,3-benzoxazol-2-yl)pyrazin-2-yl]phenyl]acetic acid] | 47.6%
CNC(=O)[C@@H]1C[C@@H](n2cc(-c3cnc(N)c(-c4nc5ccccc5o4)c3)cn2)CN1 [Example 51, (2S,4R)-4-[4-[6-amino-5-(1,3-benzoxazol-2-yl)-3-pyridyl]pyrazol-1-yl]-N-methyl-pyrrolidine-2-carboxamide] | 99.9%
CCN1CCC(n2cc(-c3cnc(N)c(-c4nc5ncccc5o4)c3)cn2)CC1 [Example 52, 5-[1-(1-ethyl-4-piperidyl)pyrazol-4-yl]-3-oxazolo[4,5-b]pyridin-2-yl-pyridin-2-amine] | 99.8%

Same assay, conditions: test compound at 30 μM; read-out: % of Axl tyrosine kinase activity inhibited at a concentration of 30 μM

Compound | inhibition at 30 µM
Nc1ncc(-c2cccc(S(=O)(=O)N3CCOCC3)c2)cc1-c1nc2ccccc2o1 [Example 47, 3-(1,3-Benzoxazol-2-yl)-5-(3-morpholinosulphonylphenyl)pyridin-2-amine] | 99.5%
